# Source: patent US20120172359A1 (NOVARTIS AG, priority 2010, published 2012)
# pIC50: −log10 of the molar value. Counter-ions that a name gives are not always drawn.
# What was measured:
# Human BACE-1 = Human BACE-1 (Homo sapiens, UniProt P56817); experiment: Test 1: Inhibition of Human BACE-1; type: biochemical; details: Test 1; recombinant BACE-1 (extracellular domain), acetate buffer pH 4.5, 1 hour with test compound at room temperature, fluorescence-quenched peptide substrate; read-out: Bace IC50
# [1] = test system: cellular release of amyloid peptide 1-40; experiment: Test 4: Inhibition of Cellular Release of Amyloid Peptide 1-40; type: cell-based; details: Cricetulus griseus, Chinese hamster ovary cells transfected with the gene for amyloid precursor protein, 24 hours with test compound, amyloid peptide 1-40 in supernatant, read-out: Bace IC50
# Experimental: Test 4: Inhibition of Cellular Release of Amyloid Peptide 1-40
# Chinese hamster ovary cells are transfected with the gene for amyloid precursor protein. The cells are plated at a density of 8000 cells/well into 96-well microtiter plates and cultivated for 24 hours in DMEM cell culture medium containing 10% FCS. The test compound is added to the cells at various concentrations, and the cells are cultivated for 24 hours in the presence of the test compound. The supernatants are collected, and the concentration of amyloid peptide 1-40 is determined using state of the art immunoassay techniques, for example sandwich ELISA, homogenous time-resolved fluorescence (HTRF) immunoassay, or electro-chemiluminescence immunoassay.
# Chain of Human BACE-1 (P56817 46-457 limits assumed): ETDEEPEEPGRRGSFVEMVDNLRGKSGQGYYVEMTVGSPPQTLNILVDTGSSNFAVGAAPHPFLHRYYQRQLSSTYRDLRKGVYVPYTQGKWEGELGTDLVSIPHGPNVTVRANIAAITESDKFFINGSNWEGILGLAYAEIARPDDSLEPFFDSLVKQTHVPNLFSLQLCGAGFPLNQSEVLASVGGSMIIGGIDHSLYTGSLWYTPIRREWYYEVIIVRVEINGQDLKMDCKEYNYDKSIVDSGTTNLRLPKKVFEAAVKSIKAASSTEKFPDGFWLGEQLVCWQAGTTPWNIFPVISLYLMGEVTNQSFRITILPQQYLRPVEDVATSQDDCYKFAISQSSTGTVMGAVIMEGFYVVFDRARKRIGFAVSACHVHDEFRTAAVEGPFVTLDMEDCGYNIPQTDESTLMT
Compound,pIC50 (Human BACE-1),pIC50 [1]
"Cc1nc(C(=O)Nc2cccc(C3(C(F)F)COCC(N)=N3)c2)co1 (centres unmarked) [Example 104, 2-Methyl-oxazole-4-carboxylic acid [3-(5-amino-3-difluoromethyl-3,6-dihydro-2H-[1,4]oxazin-3-yl)-phenyl]-amide hydrochloride]",5.82,6.82
"Cl.[2H]c1nc(C(=O)Nc2ccc(F)c([C@]3(C(F)F)COCC(N)=N3)c2)c(C([2H])([2H])[2H])c([2H])c1Br [Example 116, 5-Bromo-4,6-dideutero-3-trideuteromethyl-pyridine-2-carboxylic acid [3-((R)-5-amino-3-difluoromethyl-3,6-dihydro-2H-[1,4]oxazin-3-yl)-4-fluoro-phenyl]-amide hydrochloride]",7.74,8.40
"NC1=N[C@@](c2cc(NC(=O)c3cn4ccccc4n3)ccc2F)(C(F)F)COC1 [Example 129, Imidazo[1,2-a]pyridine-2-carboxylic acid [3-((R)-5-amino-3-difluoromethyl-3,6-dihydro-2H-[1,4]oxazin-3-yl)-4-fluoro-phenyl]-amide hydrochloride]",5.66,5.92
"CC#CCOc1cnc(C(=O)Nc2ccc(F)c([C@]3(C(F)F)COCC(N)=N3)c2)cn1 [Example 164, 5-But-2-ynyloxy-pyrazine-2-carboxylic acid [3-((R)-5-amino-3-difluoromethyl-3,6-dihydro-2H-[1,4]oxazin-3-yl)-4-fluoro-phenyl]-amide]",9.00,9.00

# Now from value to compound:
pIC50 (Human BACE-1),pIC50 [1],Compound
7.77,8.22,"Cc1cc(C#N)cnc1C(=O)Nc1ccc(F)c([C@]2(C(F)F)COCC(N)=N2)c1 [Example 144, 5-Cyano-3-methyl-pyridine-2-carboxylic acid [3-((R)-5-amino-3-difluoromethyl-3,6-dihydro-2H-[1,4]oxazin-3-yl)-4-fluoro-phenyl]-amide]"
7.10,8.10,"[2H]c1nc(C(=O)Nc2ccc(F)c([C@]3(C(F)F)COCC(N)=N3)c2)c(C([2H])([2H])[2H])c([2H])c1C#N [Example 147, 5-Cyano-4,6-dideutero-3-trideuteromethyl-pyridine-2-carboxylic acid [3-((R)-5-amino-3-difluoromethyl-3,6-diydro-2H-[1,4]oxazin-3-yl)-4-fluoro-phenyl]-amide]"
7.80,8.40,"COc1cnc(C(=O)Nc2ccc(F)c([C@]3(C(F)F)COCC(N)=N3)c2)c(N)n1 [Example 175, 3-Amino-5-methoxy-pyrazine-2-carboxylic acid [3-((R)-5-amino-3-difluoromethyl-3,6-dihydro-2H-[1,4]oxazin-3-yl)-4-fluoro-phenyl]-amide]"
